Results: patent US20260167615A1, “COMPOUNDS AND COMPOSITIONS AS GPR52 MODULATORS” (Neurocrine Biosciences, Inc., priority 2022, published 2026)
pEC50: −log10 of the molar value.

Molecular target: recombinant human GPR52 (Homo sapiens, UniProt Q9Y2T5)
Experiment: HTRF cAMP assay, GPR52 activity (Example A)
Format: cell-based
Conditions: for pEC50: average EC50 (n=1 to 15), Flp-In-CHO cells stably expressing recombinant human GPR52, cAMP HTRF, read-out: EC50 (N=); for Emax: maximum cAMP at 10 μM or 31.6 μM test compound, as percentage of Emax of control compound 4-(3-(3-fluoro-5-(trifluoromethyl)benzyl)-5-methyl-4,5-dihydro-1H-1,2,4-triazol-1-yl)-2-methylbenzamide
Method: Compounds of Formula I were assessed for their ability to modulate GPR52 activity. HTRF CAMP assays were performed using a commercially available assay kit (CAMP Gs HiRange HTRF®, CisBio). Controls and compounds were solubilized in DMSO and 62.5 nanoliters of the diluted compounds were transferred into 384-well NBS assay plates via acoustic or precision low-volume dispensing. Compounds were further diluted to 1× with the addition of 20,000 cells per well. Flp-In™—CHO cells that stably express recombinant human GPR52 were used in the assay.
Cells were harvested with cell stripper and resuspended in stimulation buffer. After thirty minutes incubation at room temperature, detection reagents were added to each well. Plates were then incubated for an additional 30 minutes at room temperature. CAMP produced by the cells during the first incubation period competes with d2-labeled CAMP for binding to an anti-cAMP monoclonal antibody labeled with europium cryptate. The measured signal was inversely proportional to the concentration of cAMP produced by the cells and this signal was quantified using a PHERAstar® multi-mode plate reader.
Dose-response curves were generated from the HTRF counts that have been transformed based on a CAMP referenced curve, and then normalized to the positive control. EC50 values were obtained using a nonlinear regression curve-fitting program. […] The Emax (Table 13) is the maximum amount of cAMP (nM) produced by incubation of the cells with 10 μM or 31.6 μM of a test compound. The compound is defined by the top plateau of the sigmoid curve fit. The curve is then normalized to a control compound, in this case 4-(3-(3-fluoro-5-(trifluoromethyl)benzyl)-5-methyl-4,5-dihydro-1H-1,2,4-triazol-1-yl)-2-methylbenzamide (Tokumaru, K., et al., “Design, synthesis, and pharmacological evaluation of 4-azolyl-benzamide derivatives as novel GPR52 agonists”, Bioorganic & Medicinal Chemistry, Volume 25, Issue 12, June 2017, pages 3098-3115), and expressed as a percentage of the Emax of that control compound.

recombinant human GPR52, sequence (Q9Y2T5 whole entry): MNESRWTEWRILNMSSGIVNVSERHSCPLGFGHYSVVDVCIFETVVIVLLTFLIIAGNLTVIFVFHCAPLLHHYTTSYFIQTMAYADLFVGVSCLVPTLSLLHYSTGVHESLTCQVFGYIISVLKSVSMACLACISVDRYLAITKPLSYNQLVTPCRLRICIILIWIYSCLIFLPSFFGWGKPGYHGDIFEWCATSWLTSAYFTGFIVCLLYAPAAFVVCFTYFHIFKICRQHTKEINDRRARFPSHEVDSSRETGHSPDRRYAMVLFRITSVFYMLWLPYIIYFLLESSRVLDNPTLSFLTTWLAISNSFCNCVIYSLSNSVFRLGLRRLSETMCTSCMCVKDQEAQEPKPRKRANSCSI

| SMILES | pEC50 | Emax [%] |
| --- | --- | --- |
| Cc1cc(-c2cc(Oc3ccc4c(c3)CCO4)ccn2)ccc1C(N)=O [Example 67, 4-(4-((2,3-dihydrobenzofuran-5-yl)oxy)pyridin-2-yl)-2-methylbenzamide] | 6.00 to 7.00 | 129 |
| CCc1cc(-c2cc(Oc3ccc4c(c3)NCCO4)ccn2)ccc1C(N)=O [Example 68, 4-(4-((3,4-dihydro-2H-benzo[b][1,4]oxazin-6-yl)oxy)pyridin-2-yl)-2-ethylbenzamide] | > 7.60 | 131 |
| Cc1cc(-c2cc(Oc3ccc4c(c3)NCCO4)ccn2)ccc1C(N)=O [Example 69, 4-(4-((3,4-dihydro-2H-benzo[b][1,4]oxazin-6-yl)oxy)pyridin-2-yl)-2-methylbenzamide] | > 7.60 | 119 |
| CCc1cc(-c2cc(Oc3ccc4ncccc4c3)ccn2)ccc1C(N)=O [Example 70, 2-ethyl-4-(4-(quinolin-6-yloxy)pyridin-2-yl)benzamide] | 6.00 to 7.00 | 126 |
| CCc1cc(-c2cc(Oc3ccc4cnccc4c3)ccn2)ccc1C(N)=O [Example 71, 2-ethyl-4-(4-(isoquinolin-6-yloxy)pyridin-2-yl)benzamide] | 7.00 to 7.60 | 107 |
| CCc1cc(-c2cc(Oc3cc(F)c4cnn(C)c4c3)cc3nccn23)ccc1C(N)=O [Example 72, 2-ethyl-4-(7-((4-fluoro-1-methyl-1H-indazol-6-yl)oxy)imidazo[1,2-a]pyridin-5-yl)benzamide] | 7.00 to 7.60 | 69 |
| CCc1cc(-c2cc(Oc3ccc4ccncc4c3)ccn2)ccc1C(N)=O [Example 73, 2-ethyl-4-(4-(162yridine162ine-7-yloxy)162yridine-2-yl)benzamide] | 6.00 to 7.00 | 66 |
| Cc1cc(-c2cc(Oc3ccc4ncccc4c3)ccn2)ccc1C(N)=O [Example 74, 2-methyl-4-(4-(quinolin-6-yloxy)pyridin-2-yl)benzamide] | 6.00 to 7.00 | 95 |
| NC(=O)c1ccc(-c2cc(Oc3ccc4ncccc4c3)ccn2)cc1C(F)(F)F [Example 75, 4-(4-(quinolin-6-yloxy)pyridin-2-yl)-2-(trifluoromethyl)benzamide] | 6.00 to 7.00 | 101 |

Other lines, results leading:

| pEC50 | Emax [%] | SMILES |
| --- | --- | --- |
| 6.00 to 7.00 | 91 | NC(=O)c1ccc(-c2cc(Oc3ccc4ncccc4c3)ccn2)cc1Cl [Example 76, 2-chloro-4-(4-(quinolin-6-yloxy)pyridin-2-yl)benzamide] |
| 6.00 to 7.00 | 75 | CCc1cc(-c2cc(Oc3cnc4c(c3)c(C(F)(F)F)nn4C)cc3nccn23)ccc1C(N)=O [Example 77, 2-ethyl-4-(7-((1-methyl-3-(trifluoromethyl)-1H-pyrazolo[3,4-b]pyridin-5-yl)oxy)imidazo[1,2-a]pyridin-5-yl)benzamide] |
| 6.00 to 7.00 | 94 | CCc1cc(-c2cc(Oc3cnc4c(c3)c(C)nn4C)cc3nccn23)ccc1C(N)=O [Example 78, 4-(7-((1,3-dimethyl-1H-pyrazolo[3,4-b]pyridin-5-yl)oxy)imidazo[1,2-a]pyridin-5-yl)-2-ethylbenzamide] |
| 6.00 to 7.00 | 60 | Cc1cc(-c2cc(Oc3ccc4ccncc4c3)ccn2)ccc1C(N)=O [Example 79, 4-(4-(isoquinolin-7-yloxy)pyridin-2-yl)-2-methylbenzamide] |
| 6.00 to 7.00 | 54 | NC(=O)c1ccc(-c2cc(Oc3ccc4ccncc4c3)ccn2)cc1Cl [Example 80, 2-chloro-4-(4-(isoquinolin-7-yloxy)pyridin-2-yl)benzamide] |
| 6.00 to 7.00 | 76 | CCc1cc(-c2cc(Oc3cnc4c(C)nn(C)c4c3)cc3nccn23)ccc1C(N)=O [Example 81, 4-(7-((1,3-dimethyl-1H-pyrazolo[4,3-b]pyridin-6-yl)oxy)imidazo[1,2-a]pyridin-5-yl)-2-ethylbenzamide] |
| 6.00 to 7.00 | 110 | NC(=O)c1ccc(-c2cc(Oc3ccc4cnccc4c3)ccn2)cc1Cl [Example 82, 2-chloro-4-(4-(isoquinolin-6-yloxy)pyridin-2-yl)benzamide] |
